Laboratory results from patent US20110044938A1 (NYCOMED GMBH, priority 2006, published 2011).

Experiments:
[1] = tested on: subclones of RKO colon adenocarcinoma cells (RKOp27 or RKOp21) arrested by Ponasterone A; test: Alamar Blue cell viability assay, cell cycle specific mode of action: cells arrested by ectopic p27Kip1 induced by Ponasterone A versus proliferating cells; type: cell-based; conditions: Homo sapiens, RKO p27 induced (arrested) cells, 10 μM Ponasterone A, 72 hours, value = class bound given in Table A, read-out: −logIC50 RKO p27 induced (arrested) (converted)
In short: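 Viability of proliferating versus Ponasterone A (10 μM)-arrested RKOp27/RKOp21 cells after 72 h compound exposure at 37° C, in quadruplicate. Read-out is Alamar Blue fluorescence (544/590 nm) normalised to untreated cells = 100%; values as −log IC50.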

[2] = tested on: RKO (RKOp27) human colon adenocarcinoma cells; test: Alamar Blue cell viability assay, anti-proliferative/cytotoxic activity on proliferating RKO subclones; type: cell-based; conditions: RKOp27, 72 h, RKO p27 uninduced (proliferating) cells, value = class bound given in Table A, read-out: −logIC50 RKO p27 uninduced (proliferating) (converted)
In short: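 Alamar Blue fluorescence (ex 544, em 590 nm) after 72 h compound exposure at 37 °C, 5% CO2, normalised to untreated controls set at 100%. Cells were seeded at 5000 per well and dosed 24 h later with serial semi-logarithmic dilutions in 10% FCS DMEM, four replicates each. −log IC50 [mol/l] was derived from concentration-effect curves.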

SMILES | IC50 [1] [nM] | IC50 [2] [nM]
CN(C)c1ncc(CNC(=O)OCC2CCc3c(sc(NC(=O)/C=C/c4cccnc4)c3C#N)C2)s1 (stereo not drawn) [Example 140, (2-Dimethyl-amino-thiazol-5-ylmethyl)-carbamic acid 3-cyano-2-((E)-3-pyridin-3-yl-allanoylamino)-4,5,6,7-tetrahydro-benzo[b]thiophen-6-ylmethyl ester] | ≥ 100000 | ≤ 501
N#Cc1c(NC(=O)/C=C/c2cccnc2)sc2c1CCC(COC(=O)n1cccc1)C2 (stereo not drawn) [Example 141, Pyrrole-1-carboxylic acid 3-cyano-2-((E)-3-pyridin-3-yl-allanoylamino)-4,5,6,7-tetrahydro-benzo[b]thiophen-6-ylmethyl ester] | ≥ 100000 | 501 to 2000
N#Cc1c(NC(=O)/C=C/c2cccnc2)sc2c1CCC(OC(=O)NC1CCCCC1)C2 (stereo not drawn) [Example 142, Cyclohexyl-carbamic acid 3-cyano-2-((E)-3-pyridin-3-yl-allanoylamino)-4,5,6,7-tetrahydro-benzo[b]thiophen-6-yl ester] | ≥ 100000 | 501 to 2000
N#Cc1c(NC(=O)/C=C/c2cccnc2)sc2c1CCC(COC(=O)N1CC[C@H](O)C1)C2 (stereo partly drawn) [Example 144, (S)-3-Hydroxy-pyrrolidine-1-carboxylic acid 3-cyano-2-((E)-3-pyridin-3-yl-allanoylamino)-4,5,6,7-tetrahydro-benzo[b]thiophen-6-ylmethyl ester] | ≥ 100000 | ≤ 501
N#Cc1c(NC(=O)/C=C/c2cccnc2)sc2c1CCC(COC(=O)N1CC[C@@H](O)C1)C2 (stereo partly drawn) [Example 145, (R)-3-Hydroxy-pyrrolidine-1-carboxylic acid 3-cyano-2-((E)-3-pyridin-3-yl-allanoylamino)-4,5,6,7-tetrahydro-benzo[b]thiophen-6-ylmethyl ester] | ≥ 100000 | ≤ 501
N#Cc1c(NC(=O)/C=C/c2cccnc2)sc2c1CCC(OC(=O)N1CC[C@H](O)C1)C2 (stereo partly drawn) [Example 146, (S)-3-Hydroxy-pyrrolidine-1-carboxylic acid 3-cyano-2-((E)-3-pyridin-3-yl-allanoylamino)-4,5,6,7-tetrahydro-benzo[b]thiophen-6-yl ester] | ≥ 100000 | ≤ 501
N#Cc1c(NC(=O)/C=C/c2cccnc2)sc2c1CCC(OC(=O)N1CC[C@@H](O)C1)C2 (stereo partly drawn) [Example 147, (R)-3-Hydroxy-pyrrolidine-1-carboxylic acid 3-cyano-2-((E)-3-pyridin-3-yl-allanoylamino)-4,5,6,7-tetrahydro-benzo[b]thiophen-6-yl ester] | ≥ 100000 | 501 to 2000
N#Cc1c(NC(=O)/C=C/c2cccnc2)sc2c1CCC(OC(=O)NC1COC1)C2 (stereo not drawn) [Example 148, Oxetan-3-yl-carbamicacid 3-cyano-2-((E)-3-pyridin-3-yl-allanoylamino)-4,5,6,7-tetrahydro-benzo[b]thiophen-6-yl ester] | ≥ 100000 | 501 to 2000
N#Cc1c(NC(=O)/C=C/c2cccnc2)sc2c1CCC(COC(=O)NC1COC1)C2 (stereo not drawn) [Example 149, Oxetan-3-yl-carbamic acid 3-cyano-2-((E)-3-pyridin-3-yl-allanoylamino)-4,5,6,7-tetrahydro-benzo[b]thiophen-6-ylmethyl ester] | ≥ 100000 | 501 to 2000
CCOC(=O)OCC1CCc2c(sc(NC(=O)CCc3ccccc3OCC)c2C#N)C1 (stereo not drawn) [Example 151, Carbonic acid 3-cyano-2-[3-(2-ethoxy-phenyl)-propanoylamino]-4,5,6,7-tetrahydro-benzo[b]thiophen-6-ylmethyl ester ethyl ester] | ≥ 100000 | ≤ 501
CCOC(=O)OC1CCc2c(sc(NC(=O)CCc3ccccc3OCC)c2C#N)C1 (stereo not drawn) [Example 152, Carbonic acid 3-cyano-2-[3-(2-ethoxy-phenyl)-propanoylamino]-4,5,6,7-tetrahydro-benzo[b]thiophen-6-yl ester ethyl ester] | ≥ 100000 | ≤ 501
CCNC(=O)OC1CCc2c(sc(NC(=O)CCc3ccccc3OCC)c2C#N)C1 (stereo not drawn) [Example 153, Ethyl-carbamic acid 3-cyano-2-[3-(2-ethoxy-phenyl)-propanoylamino]-4,5,6,7-tetrahydro-benzo[b]thiophen-6-yl ester] | ≥ 10000 | ≤ 501
CCOc1ccccc1CCC(=O)Nc1sc2c(c1C#N)CCC(OC(=O)OCc1ccccc1)C2 (stereo not drawn) [Example 154, Carbonic acid benzyl ester 3-cyano-2-[3-(2-ethoxy-phenyl)-propanoylamino]-4,5,6,7-tetrahydro-benzo[b]thiophen-6-yl ester] | ≥ 100000 | 501 to 2000
CCOc1ccccc1CCC(=O)Nc1sc2c(c1C#N)CCC(OC(=O)NCc1ccccc1)C2 (stereo not drawn) [Example 155, Benzyl-carbamic acid 3-cyano-2-[3-(2-ethoxy-phenyl)-propanoylamino]-4,5,6,7-tetrahydro-benzo[b]thiophen-6-yl ester] | ≥ 100000 | ≤ 501
CCNC(=O)OCC1CCc2c(sc(NC(=O)CCc3cccnc3)c2C#N)C1 (stereo not drawn) [Example 156, Ethyl-carbamic acid 3-cyano-2-(3-pyridin-3-yl-propanoylamino)-4,5,6,7-tetrahydro-benzo[b]thiophen-6-ylmethyl ester] | ≥ 100000 | 501 to 2000

Further lines, with some results ahead:

IC50 [1] [nM] | SMILES | IC50 [2] [nM]
≥ 100000 | CCNC(=O)OC[C@H]1CCc2c(sc(NC(=O)CCc3cccnc3)c2C#N)C1 [Example 156a, (S)-Ethyl-carbamic acid 3-cyano-2-(3-pyridin-3-yl-propanoylamino)-4,5,6,7-tetrahydro-benzo[b]thiophen-6-ylmethyl ester] | 501 to 2000
≥ 100000 | N#Cc1c(NC(=O)CCc2cccnc2)sc2c1CCC(COC(=O)NCc1ccccc1)C2 (stereo not drawn) [Example 157, Benzyl-carbamic acid 3-cyano-2-(3-pyridin-3-yl-propanoylamino)-4,5,6,7-tetrahydro-benzo[b]thiophen-6-ylmethyl ester] | ≤ 501
≥ 100000 | CCOC(=O)OC1CCc2c(sc(NC(=O)CCc3cccnc3)c2C#N)C1 (stereo not drawn) [Example 158, Carbonic acid 3-cyano-2-(3-pyridin-3-yl-propanoylamino)-4,5,6,7-tetrahydro-benzo[b]thiophen-6-yl ester ethyl ester] | 501 to 2000
≥ 100000 | CCNC(=O)OCC1CCc2c(sc(NC(=O)CCc3ccccc3OCC)c2C#N)C1 (stereo not drawn) [Example 159, Ethyl-carbamic acid 3-cyano-2-[3-(2-ethoxy-phenyl)-propanoylamino]-4,5,6,7-tetrahydro-benzo[b]thiophen-6-ylmethyl ester] | ≤ 501
≥ 100000 | CCOc1ccccc1CCC(=O)Nc1sc2c(c1C#N)CCC(COC(=O)NCc1ccccc1)C2 (stereo not drawn) [Example 160, Benzyl-carbamic acid 3-cyano-2-[3-(2-ethoxy-phenyl)-propanoylamino]-4,5,6,7-tetrahydro-benzo[b]thiophen-6-ylmethyl ester] | ≤ 501
≥ 50100 | N#Cc1c(NC(=O)CCc2cccnc2)sc2c1CCC(OC(=O)NC1CC1)C2 (stereo not drawn) [Example 161, Cyclopropyl-carbamic acid 3-cyano-2-(3-pyridin-3-yl-propanoylamino)-4,5,6,7-tetrahydro-benzo[b]thiophen-6-yl ester] | 501 to 2000
≥ 100000 | CNC(=O)OCC1CCc2c(sc(NC(=O)CCc3cccnc3)c2C#N)C1 (stereo not drawn) [Example 162, Methyl-carbamic acid 3-cyano-2-(3-pyridin-3-yl-propanoylamino)-4,5,6,7-tetrahydro-benzo[b]thiophen-6-ylmethyl ester] | 501 to 2000
≥ 10000 | CCOc1ccccc1CCC(=O)Nc1sc2c(c1C#N)CCC(OC(=O)NCCn1ccnc1)C2 (stereo not drawn) [Example 163, (2-Imidazol-1-yl-ethyl)-carbamic acid 3-cyano-2-[3-(2-ethoxy-phenyl)-propanoylamino]-4,5,6,7-tetrahydro-benzo[b]thiophen-6-yl ester] | ≤ 501
≥ 10000 | CCOc1ccccc1CCC(=O)Nc1sc2c(c1C#N)CCC(COC(=O)NCCn1ccnc1)C2 (stereo not drawn) [Example 164, (2-Imidazol-1-yl-ethyl)-carbamic acid 3-cyano-2-[3-(2-ethoxy-phenyl)-propanoylamino]-4,5,6,7-tetrahydro-benzo[b]thiophen-6-ylmethyl ester] | ≤ 501
≥ 100000 | CCOc1ccccc1CCC(=O)Nc1sc2c(c1C#N)CCC(OC(=O)NCc1cccnc1)C2 (stereo not drawn) [Example 165, Pyridin-3-ylmethyl-carbamic acid 3-cyano-2-[3-(2-ethoxy-phenyl)-propanoylamino]-4,5,6,7-tetrahydro-benzo[b]thiophen-6-yl ester] | ≤ 501
≥ 100000 | CCOc1ccccc1CCC(=O)Nc1sc2c(c1C#N)CCC(OC(=O)NCCc1cccnc1)C2 (stereo not drawn) [Example 166, (2-Pyridin-3-yl-ethyl)-carbamic acid 3-cyano-2-[3-(2-ethoxy-phenyl)-propanoylamino]-4,5,6,7-tetrahydro-benzo[b]thiophen-6-yl ester] | ≤ 501
≥ 10000 | CCOc1ccccc1CCC(=O)Nc1sc2c(c1C#N)CCC(OC(=O)NCc1cncn1C)C2 (stereo not drawn) [Example 167, (3-Methyl-3H-imidazol-4-ylmethyl)-carbamic acid 3-cyano-2-[3-(2-ethoxy-phenyl)-propanoylamino]-4,5,6,7-tetrahydro-benzo[b]thiophen-6-yl ester] | ≤ 501
